Experimental data reported in US20190015385A1, “VITAMIN E PHOSPHATE OR ACETATE FOR USE IN THE TREATMENT AND PREVENTION OF BIOFILM INFECTIONS” (priority 2016, published 2019).

Assays:
Candida albicans = assay: Anti-biofilm activity, crystal violet spectrophotometric assay (Example 1); type: cell-based; settings: C. albicans
Procedure: (§1) The bacterial biofilm was formed in a sterile 96-well polystyrene plate. In short, a microbial suspension was prepared at an optical density of 0.5 McFarland for each strain. 20 μl of microbial suspension were added to each well containing 180 μl of VitE at various concentrations. Positive controls were performed by inoculating the bacteria in BHI+HA. Following incubation for 24 h at 37° C., the broth was removed, together with non-adherent microorganisms, and 200 μl of broth were added once again. The plates were incubated at 37° C. for another 48 h, until a mature biofilm was obtained.
(§2) The amount of biofilm was determined by means of a spectrophotometric assay, adopting the method developed by Christensen et al. (1985). At the end of the incubation period, the culture medium was removed and the wells covered by the biofilm were washed twice with a sterile saline solution and then dried. The biofilm was stained with 200 μl of a 5% crystal violet solution for 10 minutes. After staining, the wells were washed with a sterile saline solution to remove excess stain and left to dry completely. Lastly, 200 μl of 96% ethanol were added to each well to re-solubilize the stain included in the biofilm. Absorbance of the crystal violet was measured at 595 nm using a microplate reader. The assay was conducted in triplicate for each bacterial strain and repeated twice.

Escherichia coli = assay: as above; type: cell-based; settings: E. coli
Procedure: as §1, §2

Pseudomonas aeruginosa = assay: as above; type: cell-based; settings: P. aeruginosa
Procedure: as §1, §2

Staphylococcus aureus = assay: as above; type: cell-based; settings: S. aureus
Procedure: as §1, §2

[1] = test system: Staphylococcus epidermidis; assay: as above; type: cell-based; settings: S. epidermidis
Procedure: as §1, §2

P. aeruginosa = assay: MIC and MBC, broth microdilution (Example 3); type: cell-based, Pseudomonas aeruginosa; settings: P. aeruginosa strains
Excerpt: This study used clinically relevant strains isolated from patients with prosthetic joint infections at the Microbiology Laboratory of the IRCCS Galeazzi Orthopaedic institute (Italy). In particular, the following were selected: strains of methicillin-resistant Staphylococcus epidermidis, of methicillin-resistant Staphylococcus aureus and of Pseudomonas aeruginosa. These strains were identified beforehand by means of biochemical assays (VITEK® 2 Compact, bioMérieux, Marcy l'Etoile, France) and stored at −80° C. prior to the analysis. Before beginning the study, all strains were screened to assess their ability to produce biofilms, according to the spectrophotometric assay described by Christensen et al. (J Clin Microbiol 1985; 22: 996-1006).
The bacteriostatic and bactericidal activity of vitamin E acetate and vitamin E phosphate against the above-mentioned bacterial strains was assessed by measuring the minimum inhibitory concentration (MIC) and the minimum bactericidal concentration (MBC). MIC, defined as the lowest concentration capable of inhibiting bacterial growth, was determined using the broth microdilution method according to EUCAST guidelines (http://www.eucast.org/clinical_breakpoints/).
(§3) In short, a suspension in Brain Heart Infusion Broth (BHI; Biomérieux, Marci l'Etoile, France) was prepared for each bacterial strain, with an optical density of 0.5 McFarland (1.5×10^8 CFU/ml). The P. acnes broth was supplemented with 5% defibrinated sheep blood (Liofilchem, Roseto degli Abruzzi, Italy). After a concentration of 10^5 UFC/ml was obtained using appropriate dilutions, each suspension was inoculated in a 96-well microtitre plate containing a two-fold serial dilution of vitamin E acetate (VitE-Ac) and vitamin E phosphate. The controls were performed by inoculating bacterial suspensions in BHI alone. […] After incubation at adequate conditions, MBC was read as the lowest concentration capable of killing 99.9% of the initial inoculum.

P. acnes = assay: MIC and MBC, broth microdilution (Example 3); type: cell-based
Procedure: as §3, with “MIC, defined as the lowest concentration capable of inhibiting bacterial growth, was determined using the broth microdilution method according to EUCAST guidelines (http://www.eucast.org/clinical_breakpoints/). In short,” for “In short,”, “Infusion Broth ([…], France) was” for “Infusion Broth (BHI; Biomérieux, Marci l'Etoile, France) was”, “sheep blood ([…] Abruzzi, Italy).” for “sheep blood (Liofilchem, Roseto degli Abruzzi, Italy).”

[2] = kills 99.9% of the initial inoculum

CC(=O)Oc1c(C)c(C)c2c(c1C)CCC(C)(CCC[C@H](C)CCC[C@H](C)CCCC(C)C)O2 (stereo partly drawn) [Vitamin E acetate, α-tocopherol acetate]
reduction of microbial biofilm with respect to the control (Candida albicans; 2.5% VitE in HA carrier): 24% | reduction of microbial biofilm with respect to the control (Candida albicans; 5% VitE in HA carrier): 37% | reduction of microbial biofilm with respect to the control (Escherichia coli; 2.5% VitE in HA carrier): 18% | reduction of microbial biofilm with respect to the control (Escherichia coli; 5% VitE in HA carrier): 38% | reduction of microbial biofilm with respect to the control (Pseudomonas aeruginosa; 2.5% VitE in HA carrier): 24% | reduction of microbial biofilm with respect to the control (Pseudomonas aeruginosa; 5% VitE in HA carrier): 39% | reduction of microbial biofilm with respect to the control (Staphylococcus aureus; 2.5% VitE in HA carrier): 63% | reduction of microbial biofilm with respect to the control (Staphylococcus aureus; 5% VitE in HA carrier): 79% | reduction of microbial biofilm with respect to the control ([1]; 2.5% VitE in HA carrier): 30% | reduction of microbial biofilm with respect to the control ([1]; 5% VitE in HA carrier): 46% | MIC range (P. aeruginosa; 24 hours): >200 mg/mL | MBC range (P. aeruginosa; [2]): >200 mg/mL | MIC range (P. acnes; 48 hours, broth with 5% defibrinated sheep blood): >200 mg/mL | MBC range (P. acnes; [2]): >200 mg/mL
